Laboratory results: patent publication US6914045B2, “Glycopeptide antibiotics” (Wyeth Holdings Corporation, priority 2001, dated 2005)
Values after ≈ are worked out from the molar mass of the structure shown.

Columns and labels:
Assay in all cases: in vitro antibacterial evaluation, MIC by broth dilution
Format in all cases: cell-based
Escherichia coli = conditions: 18 hours at 35° C.
Staphylococcus sp. = conditions: broth dilution, 18 hours at 35° C.
How it was run: (§1)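 MIC = lowest antibiotic concentration preventing visible growth; inoculum 5×10^5 CFU/mL; drug range 64-0.06 μg/mL; Muller-Hinton II […]; NCCLS M7-A2 guidance.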

Streptococcus sp. = conditions: broth dilution, 18 hours at 35° C.
How it was run: as §1

Enterococcus sp. = conditions: broth dilution, 18 hours at 35° C.
How it was run: as §1

MIC Escherichia coli (ATCC 25922) (Escherichia coli): >64 µg/mL | MIC Escherichia coli (GC 4559) (Escherichia coli): >64 µg/mL | MIC Escherichia coli (GC 4560) (Escherichia coli): 64 µg/mL (≈ 44 µM) | MIC Coagulase Negative Staphylococcus (GC 4547) (Staphylococcus sp.): 64 µg/mL (≈ 44 µM) | MIC Coagulase Negative Staphylococcus (GC 4548) (Staphylococcus sp.): 32 µg/mL (≈ 22 µM) | MIC Coagulase Negative Staphylococcus (GC 4549) (Staphylococcus sp.): 32 µg/mL (≈ 22 µM) | MIC Coagulase Negative Staphylococcus (GC 4551) (Staphylococcus sp.): 64 µg/mL (≈ 44 µM) | MIC Coagulase Negative Staphylococcus (GC 6257) (Staphylococcus sp.): 32 µg/mL (≈ 22 µM) | MIC Staphylococcus aureus (ATCC 29213) (Staphylococcus sp.): 64 µg/mL (≈ 44 µM) | MIC Staphylococcus aureus (GC 1131) (Staphylococcus sp.): 64 µg/mL (≈ 44 µM) | MIC Staphylococcus aureus (GC 3051) (Staphylococcus sp.): 64 µg/mL (≈ 44 µM) | MIC Staphylococcus aureus (GC 3053) (Staphylococcus sp.): 64 µg/mL (≈ 44 µM) | MIC Staphylococcus aureus (GC 4541) (Staphylococcus sp.): 64 µg/mL (≈ 44 µM) | MIC Staphylococcus aureus (GC 4542) (Staphylococcus sp.): 64 µg/mL (≈ 44 µM) | MIC Staphylococcus aureus (GC 4544) (Staphylococcus sp.): 64 µg/mL (≈ 44 µM) | MIC Staphylococcus aureus (GC 4545) (Staphylococcus sp.): 64 µg/mL (≈ 44 µM) | MIC Staphylococcus aureus-SMITH (GC 4543) (Staphylococcus sp.): 64 µg/mL (≈ 44 µM) | MIC Staphylococcus aureus (ATCC 29213) (Staphylococcus sp.; strain ATCC 29213): 64 µg/mL (≈ 44 µM) | MIC Staphylococcus aureus (GC 1131) (Staphylococcus sp.; strain GC 1131): 64 µg/mL (≈ 44 µM) | MIC Staphylococcus aureus (GC 3051) (Staphylococcus sp.; strain GC 3051): 64 µg/mL (≈ 44 µM) | MIC Staphylococcus aureus (GC 3053) (Staphylococcus sp.; strain GC 3053): 64 µg/mL (≈ 44 µM) | MIC Staphylococcus aureus (GC 4541) (Staphylococcus sp.; strain GC 4541): 64 µg/mL (≈ 44 µM) | MIC Staphylococcus aureus (GC 4542) (Staphylococcus sp.; strain GC 4542): 64 µg/mL (≈ 44 µM) | MIC Staphylococcus aureus-SMITH (GC 4543) (Staphylococcus sp.; strain GC 4543): 64 µg/mL (≈ 44 µM) | MIC Staphylococcus aureus (GC 4544) (Staphylococcus sp.; strain GC 4544): 64 µg/mL (≈ 44 µM) | MIC Staphylococcus aureus (GC 4545) (Staphylococcus sp.; strain GC 4545): 64 µg/mL (≈ 44 µM) | MIC Coagulase Negative Staphylococcus (GC 4547) (Staphylococcus sp.; strain GC 4547): 64 µg/mL (≈ 44 µM) | MIC Coagulase Negative Staphylococcus (GC 4548) (Staphylococcus sp.; strain GC 4548): 32 µg/mL (≈ 22 µM) | MIC Coagulase Negative Staphylococcus (GC 4549) (Staphylococcus sp.; strain GC 4549): 32 µg/mL (≈ 22 µM) | MIC Coagulase Negative Staphylococcus (GC 4551) (Staphylococcus sp.; strain GC 4551): 64 µg/mL (≈ 44 µM) | MIC Coagulase Negative Staphylococcus (GC 6257) (Staphylococcus sp.; strain GC 6257): 32 µg/mL (≈ 22 µM) | MIC Streptococcus agalactiae (GC 4564) (Streptococcus sp.): 32 µg/mL (≈ 22 µM) | MIC Streptococcus pneumoniae (ATCC 6301) (Streptococcus sp.): 32 µg/mL (≈ 22 µM) | MIC Streptococcus pneumoniae (GC 1894) (Streptococcus sp.): 8 µg/mL (≈ 5.5 µM) | MIC Streptococcus pneumoniae (GC 4565) (Streptococcus sp.): 16 µg/mL (≈ 11 µM) | MIC Streptococcus pyogenes (GC 4563) (Streptococcus sp.): 32 µg/mL (≈ 22 µM) | MIC Streptococcus pneumoniae (ATCC 6301) (Streptococcus sp.; inoculum 5×10^5 CFU/mL, strain ATCC 6301): 32 µg/mL (≈ 22 µM) | MIC Streptococcus pneumoniae (GC 1894) (Streptococcus sp.; inoculum 5×10^5 CFU/mL, strain GC 1894): 8 µg/mL (≈ 5.5 µM) | MIC Streptococcus pyogenes (GC 4563) (Streptococcus sp.; inoculum 5×10^5 CFU/mL, strain GC 4563): 32 µg/mL (≈ 22 µM) | MIC Streptococcus agalactiae (GC 4564) (Streptococcus sp.; inoculum 5×10^5 CFU/mL, strain GC 4564): 32 µg/mL (≈ 22 µM) | MIC Streptococcus pneumoniae (GC 4565) (Streptococcus sp.; inoculum 5×10^5 CFU/mL, strain GC 4565): 16 µg/mL (≈ 11 µM) | MIC Enterococcus avium (GC 4558) (Enterococcus sp.): 32 µg/mL (≈ 22 µM) | MIC Enterococcus faecalis (ATCC 29212) (Enterococcus sp.): >64 µg/mL | MIC Enterococcus faecalis (GC 2242) (Enterococcus sp.): 64 µg/mL (≈ 44 µM) | MIC Enterococcus faecalis (GC 2691) (Enterococcus sp.): >64 µg/mL | MIC Enterococcus faecalis (GC 3059) (Enterococcus sp.): >64 µg/mL | MIC Enterococcus faecalis (GC 4552) (Enterococcus sp.): >64 µg/mL | MIC Enterococcus faecalis (GC 4553) (Enterococcus sp.): 64 µg/mL (≈ 44 µM) | MIC Enterococcus faecalis (GC 4554) (Enterococcus sp.): >64 µg/mL | MIC Enterococcus faecalis (GC 6189) (Enterococcus sp.): 64 µg/mL (≈ 44 µM) | MIC Enterococcus faecium (GC 2243) (Enterococcus sp.): 64 µg/mL (≈ 44 µM) | MIC Enterococcus faecium (GC 4556) (Enterococcus sp.): >64 µg/mL | MIC Enterococcus faecium (GC 4557) (Enterococcus sp.): 32 µg/mL (≈ 22 µM) | MIC Enterococcus faecalis (ATCC 29212) (Enterococcus sp.; strain ATCC 29212): >64 µg/mL | MIC Enterococcus faecium (GC 2243) (Enterococcus sp.; strain GC 2243): 64 µg/mL (≈ 44 µM) | MIC Enterococcus faecalis (GC 4552) (Enterococcus sp.; strain GC 4552): >64 µg/mL | MIC Enterococcus faecalis (GC 4553) (Enterococcus sp.; strain GC 4553): 64 µg/mL (≈ 44 µM) | MIC Enterococcus faecalis (GC 4554) (Enterococcus sp.; strain GC 4554): >64 µg/mL | MIC Enterococcus faecium (GC 4556) (Enterococcus sp.; strain GC 4556): >64 µg/mL | MIC Enterococcus faecium (GC 4557) (Enterococcus sp.; strain GC 4557): 32 µg/mL (≈ 22 µM) | MIC Enterococcus avium (GC 4558) (Enterococcus sp.; strain GC 4558): 32 µg/mL (≈ 22 µM) | MIC Enterococcus faecalis (GC 6189) (Enterococcus sp.; strain GC 6189): 64 µg/mL (≈ 44 µM) | MIC Enterococcus faecalis (GC 2242) (Enterococcus sp.; inoculum 5×10^5 CFU/mL, strain GC 2242): 64 µg/mL (≈ 44 µM) | MIC Enterococcus faecalis (GC 2691) (Enterococcus sp.; inoculum 5×10^5 CFU/mL, strain GC 2691): >64 µg/mL | MIC Enterococcus faecalis (GC 3059) (Enterococcus sp.; inoculum 5×10^5 CFU/mL, strain GC 3059): >64 µg/mL
SMILES: CC(c1ccccc1)C1NC(=O)CNC(=O)C(CO)NC(=O)C(C(O)C2CNC(=N)N2C2OC(CO)C(O)C(O)C2O)NC(=O)C(C(O)C2CNC(=N)N2)NC(=O)C(Cc2ccc(OC3OC(CO)C(OC4OC(COCC=Cc5ccc(N(C)C)cc5)C(O)C(O)C4O)C(O)C3O)cc2)NC1=O (stereo not shown) [Example 243]
MIC Staphylococcus haemolyticus (GC 4546) (Staphylococcus sp.): 64 µg/mL (≈ 44 µM) | MIC Staphylococcus haemolyticus (GC 4546) (Staphylococcus sp.; strain GC 4546): 64 µg/mL (≈ 44 µM)
